Measurements as given in publication PMC3722118, “Hellebrin and its aglycone form hellebrigenin display similar in vitro growth inhibitory effects in cancer cells and binding profiles to the alpha subunits of the Na^+/K^+-ATPase” (Molecular Cancer, 2013).
Like-named read-outs stand apart in the source and are kept apart here.

Experiments:
Rodent NaK = target: Rodent NaK; design: method as in PMID 17706876; details: read-out: Ki for inhibition of activity, rodent NaK; cited from earlier work
human NaK = target: human NaK; design: method as in PMID 17706876; details: read-out: Ki for inhibition of activity, human NaK; cited from earlier work
[1] = test system: PC-3 prostate cancer cells; assay: MTT colorimetric in vitro growth inhibition assay; type: cell-based, human; details: Homo sapiens, 72 h, read-out: IC50 (nM) PC-3
From the text: (§1) The histological types and origins of the eight human cancer cell lines that were used for the MTT colorimetric assay are detailed in the legend of Table 1. Two mouse cancer cell lines were also used, the CT26.WT colon cancer cell line (ATCC code CRL-2638) and the B16F10 melanoma cell line (ATCC code CRL-6475). Both cell lines were obtained from the American Type Culture Collection (ATCC, Manassas, VA). A control cell line (human NHDF fibroblasts) was obtained from PromoCell (code c-12300; Heidelberg, Germany). The cell lines detailed in Figure 2A are a generous gift from the National Cancer Institute (NCI, Bethesda, USA) to Steven Karlish’s lab.
(§2) The cancer cells were cultured in RPMI (Lonza, Verviers, Belgium) medium supplemented with 10% heat-inactivated fetal calf serum (Lonza). All culture media were supplemented with 4 mM glutamine, 100 μg/mL gentamicin, 200 U/mL penicillin and 200 μg/mL streptomycin (Lonza). The NHDF fibroblasts were cultured in Lonza medium cc3132 KT FGM-2 BulletKit.
(§3) The overall growth level of the human cancer cell lines was determined using a colorimetric MTT (3-(4,5-dimethylthiazol-2yl)-2,5-diphenyltetrazolium bromide, Sigma, Belgium) assay as detailed previously. Briefly, this test measures the number of metabolically active (thus living) cells that are able to transform the yellow MTT into the blue formazan dye via a mitochondrial reduction involving succinate dehydrogenase. The amount of formazan obtained at the end of the experiment (measured by spectrophotometry) is directly proportional to the number of living cells. The determination of the optical density in the control compared to the treated cells therefore enables quantitative measurements of the effects of compounds on the growth of normal as well as cancer cells in vitro.
(§4) Each experimental condition was performed in six replicates.

U373 glioma cells = assay: MTT colorimetric in vitro growth inhibition assay; type: cell-based, human; details: Homo sapiens, U373 MG, 72 h, read-out: IC50 (nM) U373
From the text: as §1, §2, §3, §4

HT-29 colon cancer cells [2] = assay: MTT colorimetric in vitro growth inhibition assay; type: cell-based, human; details: Homo sapiens, HT-29, 72 h, read-out: IC50 (nM) HT-29
From the text: as §1, §2, §3, §4

Hs683 glioma cells = assay: MTT colorimetric in vitro growth inhibition assay; type: cell-based, human; details: Homo sapiens, Hs 683, 72 h, read-out: IC50 (nM) Hs683
From the text: as §1, §2, §3, §4

[3] = test system: MCF-7 breast cancer cells; assay: MTT colorimetric in vitro growth inhibition assay; type: cell-based, human; details: Homo sapiens, MCF7, 72 h, read-out: IC50 (nM) MCF-7
From the text: as §1, §2, §3, §4

SKMEL-28 melanoma cells = assay: MTT colorimetric in vitro growth inhibition assay; type: cell-based, human; details: Homo sapiens, SK-MEL-28, 72 h, read-out: IC50 (nM) SKMEL-28
From the text: as §1, §2, §3, §4

A549 NSCLC cells = assay: MTT colorimetric in vitro growth inhibition assay; type: cell-based, human; details: Homo sapiens, A549, 72 h, read-out: IC50 (nM) A549
From the text: as §1, §2, §3, §4

T98G glioma cells = assay: MTT colorimetric in vitro growth inhibition assay; type: cell-based, human; details: Homo sapiens, T98G, 72 h, read-out: IC50 (nM) T98G
From the text: as §1, §2, §3, §4

[4] = test system: human cancer cells (A549, U373, Hs683, T98G, MCF-7, SKMEL-28, PC-3, HT-29); assay: MTT growth inhibition, mean over the eight human cancer cell lines; type: cell-based; details: 72 h, read-out: IC50 (nM) Mean ± SEM
From the text: as §1, §2, §3, §4

HT-29 colon cancer cells [5] = assay: O2 consumption rate (MitoXpress assay); type: cell-based, human; details: compounds at their IC50 (MTT), 24 h
Protocol: For enzymatic determination of lactate production, confluent tumor cells were incubated with 10 mM glucose for 24 hours. Culture medium was then filtered through centrifugation columns with a 10 KDa cutoff, and L-lactate concentrations were determined on an ISCUSflex analyzer (CMA Microdialysis AB, Solna, Sweden). O2 consumption was determined using the MitoXpress assay according to the manufacturer’s instructions (LuxCell Biosciences, Cork, Ireland). Briefly, after adding the oxygen probe to tumor cells cultured for 24 hours in 96-well microplates with or without the tested compounds, the wells were sealed with mineral oil, and respiration was evaluated using time-resolved fluorescent plate readers. Under these conditions, O2 depletion was translated into an increase in probe phosphorescence signal, and the slope of this signal was used to derive the O2 consumption rate.
Figure 6 Metabolic profiling of human HT29 colon cancer cells treated with cardiotonic steroids. A: Extracellular lactate concentrations and B: O2 consumption rates in HT29 cancer cells treated with the indicated compounds at their IC50in vitro growth inhibitory concentrations (see Table 1). The data (mean ± SEM from triplicates) are expressed in mM lactate accumulated in the extracellular medium after 24 hours and arbitrary units derived from time-resolved fluorescent signal.min^-1.

CT26 colon cancer cells = assay: MTT growth inhibition in mouse cancer cells; type: cell-based; details: mouse cancer cell line, read-out: IC50 growth inhibitory concentration in CT26 colon cancer cells
From the text: as §1
(§5) The cancer cells were cultured in RPMI (Lonza, Verviers, Belgium) medium supplemented with 10% heat-inactivated fetal calf serum (Lonza). […]
as §3, with “Briefly, this test measures the number of metabolically active (thus living) cells that are able to transform the yellow MTT into the blue formazan dye via a mitochondrial reduction involving succinate dehydrogenase.” left out, “vitro. […]” for “vitro.”

B16F10 melanoma cells = assay: MTT growth inhibition in mouse cancer cells; type: cell-based; details: B16-F10; mouse cancer cell line; read-out: IC50 growth inhibitory concentration in B16F10 melanoma cells
From the text: as §1, §5
as §3, with “Briefly, this test measures the number of metabolically active (thus living) cells that are able to transform the yellow MTT into the blue formazan dye via a mitochondrial reduction involving succinate dehydrogenase.” left out, “vitro. […]” for “vitro.”

human α2β1 NaK complex = target: T1, human α2β1 NaK complex (Homo sapiens, UniProt P50993); assay: 3H-ouabain competitive displacement on P. pastoris membranes; type: binding
T1 construct: made in house; host or cells: Pichia pastoris strain SMD1165 (membranes)
Protocol: (§6) K0.5 was calculated using a one site inhibition model: B/BCG=0 = K0.5/([CG] + K0.5). […] Binding of each cardiac glycoside was estimated in 3 separate experiments.
(§7) Average KD or Ki values ± SEM for each isoform were calculated. Statistical significance was calculated by the unpaired Students t-test. P values <0.05 were considered significant.

human α1β1 NaK complex = target: T2, human α1β1 NaK complex (Homo sapiens, UniProt P05023); assay: as above; type: binding; details: 3H-ouabain displacement, three independent experiments; read-out: Affinity (nM) α-1 (KD ± SEM)
T2 construct: made in house; host or cells: Pichia pastoris strain SMD1165 (membranes)
Protocol: as §6, §7

human α3β1 NaK complex = target: T3, human α3β1 NaK complex (Homo sapiens, UniProt P13637); assay: as above; type: binding
T3 construct: made in house; host or cells: Pichia pastoris strain SMD1165 (membranes)
Protocol: as §6, §7

NHDF fibroblasts = assay: MTT growth inhibition in non-cancerous control cell line; type: cell-based; details: NHDF, normal human fibroblasts, read-out: in vitro growth inhibitory effects (IC50) in NHDF fibroblasts
From the text: as §1, §2, §3, §4

[6] = three days of culture, * three independent experiments, ** one experiment, six replicates

In the case of `C[C@@H]1O[C@@H](O[C@H]2C[C@@H](O)[C@]3(CO)[C@H]4[C@H](O)C[C@]5(C)[C@@H](C6=CC(=O)OC6)CC[C@]5(O)[C@@H]4CC[C@]3(O)C2)[C@H](O)[C@H](O)[C@H]1O` [Ouabain], the Ki (Rodent NaK) is given as 100000 nM, the Ki (human NaK) is given as 100 nM and the IC50 [1, 6] is given as 63 ± 10 nM. For the same compound, the IC50 (U373 glioma cells; [6]) was 78 ± 1 nM, the IC50 (HT-29 colon cancer cells [2]; [6]) was 84 ± 8 nM and the IC50 (Hs683 glioma cells; [6]) was 34 ± 3 nM. The IC50 [3, 6] was 100 ± 17 nM, the IC50 (SKMEL-28 melanoma cells; [6]) was 83 ± 13 nM and the IC50 (A549 NSCLC cells; [6]) was 37 ± 2 nM. For the same compound, the IC50 (T98G glioma cells; [6]) was 80 ± 3 nM, the IC50 ([4]; mean over eight human cancer cell lines, three days of culture) was 70 ± 8 nM and the “O2 consumption rate (cell respiration)” value (HT-29 colon cancer cells [5]) was “significantly reduced”.

`C[C@@H]1O[C@@H](O[C@H]2CC[C@@]3(C)[C@H](CC[C@@H]4[C@@H]3[C@H](O)C[C@]3(C)[C@@H](c5ccc(=O)oc5)CC[C@]43O)C2)[C@H](O)[C@H](O)[C@H]1O` [Gamabufotalin-rhamnoside] gave an IC50 (CT26 colon cancer cells) of 900 nM, an IC50 (B16F10 melanoma cells) of 700 nM and a Kd (human α2β1 NaK complex; 3H-ouabain displacement, three independent experiments, read-out: Affinity (nM) α-2 (KD ± SEM)) of 36 ± 10 nM. The “Selectivity α-1 / α-2” value (human α2β1 NaK complex; ratio of KD α-1 to KD α-2) was 0.8, the Kd (human α1β1 NaK complex) was 30 ± 7 nM and the Kd (human α3β1 NaK complex; 3H-ouabain displacement, three independent experiments, read-out: Affinity (nM) α-3 (KD ± SEM)) was 17 ± 2 nM. The “Selectivity α-1 / α-3” value (human α3β1 NaK complex; ratio of KD α-1 to KD α-3) was 1.8, the IC50 (NHDF fibroblasts) was 1840 nM and the IC50 [1] was 6 ± 1 nM. It also gave an IC50 (U373 glioma cells) of 6 ± 2 nM, an IC50 (HT-29 colon cancer cells [2]) of 8 ± 1 nM and an IC50 (Hs683 glioma cells) of 4 ± 1 nM. For the same compound, the IC50 [3] was 17 ± 5 nM, the IC50 (SKMEL-28 melanoma cells) was 18 ± 7 nM and the IC50 (A549 NSCLC cells) was 3 ± 1 nM. The IC50 (T98G glioma cells) was 7 ± 1 nM, the IC50 ([4]; Homo sapiens) was 9 ± 2 nM and the “O2 consumption rate (cell respiration)” value (HT-29 colon cancer cells [5]) was “significantly reduced”.
